Assay results: patent EP4745137A1 (Gluetacs Therapeutics (Shanghai) Co., Ltd., priority 2023, dated 2025)

Assays:
IKZF2 = target: T1, IKZF2 (Homo sapiens, UniProt Q96SW2+Q9UKS7); assay: Western-blot assay of substrate protein degradation in hPBMCs, IKZF2; format: cell-based; details: 24 hours of compound treatment, compounds tested at 50 nM and 500 nM (concentration of the table not stated)
T1 construct: endogenous in cells; host or cells: hPBMCs (Milecell Biotechnologies)

GSPT1 = target: T2, GSPT1 (Homo sapiens, UniProt P15170+Q96SW2); assay: Western-blot assay of substrate protein degradation in hPBMCs, GSPT1; format: cell-based; details: 24 hours of compound treatment, compounds tested at 50 nM and 500 nM (concentration of the table not stated)
T2 construct: endogenous in cells; host or cells: hPBMCs (Milecell Biotechnologies)

Jurkat = assay: Tumor cell proliferation inhibition (CellTiter-Meiluncell Luminescent Cell Viability Assay), Jurkat; details: Homo sapiens, 96 h, read-out: inhibitory activity (IC50, nM) against tumor cells proliferation, Jurkat
NCI-H1975 = assay: Tumor cell proliferation inhibition (CellTiter-Meiluncell Luminescent Cell Viability Assay), NCI-H1975; details: Homo sapiens, NCI-H1975, 96 h, read-out: inhibitory activity (IC50, nM) against tumor cells proliferation, H1975
IKZF3 = target: T3, IKZF3 (Homo sapiens, UniProt Q96SW2+Q9UKT9); assay: Western-blot assay of substrate protein degradation in hPBMCs, IKZF3; format: cell-based; details: 24 hours of compound treatment, compounds tested at 50 nM and 500 nM (concentration of the table not stated)
T3 construct: endogenous in cells; host or cells: hPBMCs (Milecell Biotechnologies)

WEE1 = target: T4, WEE1 (Homo sapiens, UniProt P30291+Q96SW2); assay: Western-blot assay of substrate protein degradation in hPBMCs, WEE1; format: cell-based; details: 24 hours of compound treatment, compounds tested at 50 nM and 500 nM (concentration of the table not stated)
T4 construct: endogenous in cells; host or cells: hPBMCs (Milecell Biotechnologies)

[1] = target: T5, human Cereblon WT GST-tagged protein (Homo sapiens, UniProt Q96SW2); assay: CRBN-binding affinity by HTRF (CEREBLON BINDING kit); details: HTRF inhibitory activity, CEREBLON BINDING kit; read-out: HTRF IC50
T5 construct: purchased CISBIO 64BDCRBNPEH

IKZF1 = target: T6, IKZF1 (Homo sapiens, UniProt Q13422+Q96SW2); assay: Western-blot assay of substrate protein degradation in hPBMCs, IKZF1; format: cell-based; details: 24 hours of compound treatment, compounds tested at 50 nM and 500 nM (concentration of the table not stated)
T6 construct: endogenous in cells; host or cells: hPBMCs (Milecell Biotechnologies)

CK1α = target: T7, CK1α (Homo sapiens, UniProt P48729+Q96SW2); assay: Western-blot assay of substrate protein degradation in hPBMCs, CK1α; format: cell-based; details: 24 hours of compound treatment, compounds tested at 50 nM and 500 nM (concentration of the table not stated)
T7 construct: endogenous in cells; host or cells: hPBMCs (Milecell Biotechnologies)

[2] = system: Human breast cancer cells (MDA-MB-231); assay: Tumor cell proliferation inhibition (CellTiter-Meiluncell Luminescent Cell Viability Assay), MDA-MB-231; details: MDA-MB-231, 96 h, read-out: inhibitory activity (IC50, nM) against tumor cells proliferation, MDA-MB-231
CAL-62 = assay: Tumor cell proliferation inhibition (CellTiter-Meiluncell Luminescent Cell Viability Assay), CAL-62; details: Homo sapiens, CAL-62, 96 h, read-out: inhibitory activity (IC50, nM) against tumor cells proliferation, CAL-62
MM.1R = assay: Tumor cell proliferation inhibition (CellTiter-Meiluncell Luminescent Cell Viability Assay), MM.1R; details: Homo sapiens, 96 h, read-out: inhibitory activity (IC50, nM) against tumor cells proliferation, MM.1R
[3] = system: Human acute T lymphocytic leukemia cells (Molt-4); assay: Tumor cell proliferation inhibition (CellTiter-Meiluncell Luminescent Cell Viability Assay), Molt-4; details: MOLT-4, 96 h, read-out: inhibitory activity (IC50, nM) against tumor cells proliferation, Molt 4
Method: The tumor cells used herein were cultured in a cell culture medium listed in table 2 at 37°C in an incubator with 5% CO2. Prior to experimentation, all cell lines used were correctly identified by STR profiling, and tested negative for mycoplasma contamination using a mycoplasma detection kit through routine screenings.
On the following day, the test compounds of the present disclosure were subjected to serial dilution. […] Subsequently, 0.5 µL of the test compound dilution was transferred into the 96-well plate containing the cells, with each well containing 100 µL of cell culture medium. […] Into the 96-well plate, the diluted test compounds and corresponding detection reagents were added, resulting in final test compound concentrations of 500 nM and 10 nM, respectively. The experimental procedure is described below using the diluted 2 µM test compound as an example.
After the cells were treated with the compounds of the present disclosure for a specified period (the treatment durations were shown in Table 3), the cell viability assay reagent was added to the culture medium according to the kit's instructions to determine cell viability. […] All controls were treated using the same procedure as the compounds of the present disclosure. The growth inhibition curves for the compounds of the present disclosure were plotted using Prism GraphPad software, and the IC50 values were calculated therefrom.

T5 sequence (Q96SW2 whole entry): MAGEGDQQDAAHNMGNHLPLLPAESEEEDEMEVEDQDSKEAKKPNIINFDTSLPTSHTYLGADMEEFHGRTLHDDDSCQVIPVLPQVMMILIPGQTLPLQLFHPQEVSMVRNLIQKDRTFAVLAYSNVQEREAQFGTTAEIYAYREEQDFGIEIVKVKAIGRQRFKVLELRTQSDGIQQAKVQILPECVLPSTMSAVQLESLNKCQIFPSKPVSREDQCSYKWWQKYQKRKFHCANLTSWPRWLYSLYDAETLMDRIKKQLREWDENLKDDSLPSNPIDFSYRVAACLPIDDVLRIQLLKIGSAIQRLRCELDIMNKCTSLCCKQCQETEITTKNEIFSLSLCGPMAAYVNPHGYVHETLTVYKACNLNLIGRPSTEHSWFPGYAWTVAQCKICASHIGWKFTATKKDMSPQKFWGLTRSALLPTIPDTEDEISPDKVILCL
T4 sequence (P30291 whole entry): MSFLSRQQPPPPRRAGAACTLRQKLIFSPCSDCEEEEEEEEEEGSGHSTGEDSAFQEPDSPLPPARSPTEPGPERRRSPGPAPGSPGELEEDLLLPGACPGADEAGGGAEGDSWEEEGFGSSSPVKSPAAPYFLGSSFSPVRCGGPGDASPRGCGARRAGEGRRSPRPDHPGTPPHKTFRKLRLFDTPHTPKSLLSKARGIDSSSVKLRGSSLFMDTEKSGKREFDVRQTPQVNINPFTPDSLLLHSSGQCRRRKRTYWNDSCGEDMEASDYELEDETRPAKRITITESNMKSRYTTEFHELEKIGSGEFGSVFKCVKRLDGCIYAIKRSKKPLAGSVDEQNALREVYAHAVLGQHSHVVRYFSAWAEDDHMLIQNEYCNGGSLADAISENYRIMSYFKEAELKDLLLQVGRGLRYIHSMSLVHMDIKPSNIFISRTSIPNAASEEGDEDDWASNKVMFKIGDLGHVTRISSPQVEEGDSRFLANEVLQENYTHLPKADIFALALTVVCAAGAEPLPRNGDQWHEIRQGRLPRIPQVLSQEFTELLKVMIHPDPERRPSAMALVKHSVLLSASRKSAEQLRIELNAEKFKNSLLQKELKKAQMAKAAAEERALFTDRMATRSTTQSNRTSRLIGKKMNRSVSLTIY
T4 sequence (Q96SW2 whole entry): as the sequence (Q96SW2 whole entry) above
T4 sequence (Q16531 whole entry partner): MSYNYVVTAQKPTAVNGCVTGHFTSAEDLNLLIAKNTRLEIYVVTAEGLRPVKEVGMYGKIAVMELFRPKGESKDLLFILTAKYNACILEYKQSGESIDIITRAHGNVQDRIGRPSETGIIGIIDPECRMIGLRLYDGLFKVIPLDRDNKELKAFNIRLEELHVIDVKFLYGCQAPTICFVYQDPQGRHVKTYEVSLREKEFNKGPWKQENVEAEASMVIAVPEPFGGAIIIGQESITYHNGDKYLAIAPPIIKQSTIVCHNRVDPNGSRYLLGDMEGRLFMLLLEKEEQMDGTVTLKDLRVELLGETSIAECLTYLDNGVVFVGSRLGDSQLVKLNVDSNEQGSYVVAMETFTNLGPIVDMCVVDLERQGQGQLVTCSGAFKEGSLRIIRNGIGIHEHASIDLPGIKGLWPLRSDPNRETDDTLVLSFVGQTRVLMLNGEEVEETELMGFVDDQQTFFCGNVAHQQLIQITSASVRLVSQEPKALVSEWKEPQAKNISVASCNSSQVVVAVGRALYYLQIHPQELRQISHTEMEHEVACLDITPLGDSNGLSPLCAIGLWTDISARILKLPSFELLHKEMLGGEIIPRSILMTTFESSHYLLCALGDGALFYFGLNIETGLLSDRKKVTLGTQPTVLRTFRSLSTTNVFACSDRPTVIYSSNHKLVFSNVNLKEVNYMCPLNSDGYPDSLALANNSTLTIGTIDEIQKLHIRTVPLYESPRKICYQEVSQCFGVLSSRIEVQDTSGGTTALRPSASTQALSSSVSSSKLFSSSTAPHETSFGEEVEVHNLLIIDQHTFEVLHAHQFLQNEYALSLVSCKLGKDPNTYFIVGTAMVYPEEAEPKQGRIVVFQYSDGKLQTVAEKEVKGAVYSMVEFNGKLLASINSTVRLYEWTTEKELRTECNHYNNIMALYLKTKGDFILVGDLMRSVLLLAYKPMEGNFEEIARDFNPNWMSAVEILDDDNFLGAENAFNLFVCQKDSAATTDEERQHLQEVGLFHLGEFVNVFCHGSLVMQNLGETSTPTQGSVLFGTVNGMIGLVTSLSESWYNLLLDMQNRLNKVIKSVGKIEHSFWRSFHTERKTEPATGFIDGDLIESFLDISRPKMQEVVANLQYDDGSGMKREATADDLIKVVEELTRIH
T2 sequence (P15170 whole entry): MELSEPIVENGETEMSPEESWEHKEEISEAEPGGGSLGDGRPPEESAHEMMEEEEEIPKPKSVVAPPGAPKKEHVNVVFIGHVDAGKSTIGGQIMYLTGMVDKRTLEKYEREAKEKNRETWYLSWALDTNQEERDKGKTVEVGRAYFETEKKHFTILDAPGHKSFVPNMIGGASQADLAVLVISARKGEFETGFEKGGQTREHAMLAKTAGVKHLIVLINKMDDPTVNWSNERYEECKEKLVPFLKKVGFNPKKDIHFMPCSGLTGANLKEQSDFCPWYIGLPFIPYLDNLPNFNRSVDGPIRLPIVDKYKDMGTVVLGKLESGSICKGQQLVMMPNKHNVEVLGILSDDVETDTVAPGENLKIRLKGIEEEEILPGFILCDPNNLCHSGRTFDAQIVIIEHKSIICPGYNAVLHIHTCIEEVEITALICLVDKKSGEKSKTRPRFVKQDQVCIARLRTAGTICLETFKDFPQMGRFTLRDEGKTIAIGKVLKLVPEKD
T2 sequence (Q96SW2 whole entry): as the sequence (Q96SW2 whole entry) above
T2 sequence (Q16531 whole entry partner): as the sequence (Q16531 whole entry partner) above
T6 sequence (Q13422 whole entry): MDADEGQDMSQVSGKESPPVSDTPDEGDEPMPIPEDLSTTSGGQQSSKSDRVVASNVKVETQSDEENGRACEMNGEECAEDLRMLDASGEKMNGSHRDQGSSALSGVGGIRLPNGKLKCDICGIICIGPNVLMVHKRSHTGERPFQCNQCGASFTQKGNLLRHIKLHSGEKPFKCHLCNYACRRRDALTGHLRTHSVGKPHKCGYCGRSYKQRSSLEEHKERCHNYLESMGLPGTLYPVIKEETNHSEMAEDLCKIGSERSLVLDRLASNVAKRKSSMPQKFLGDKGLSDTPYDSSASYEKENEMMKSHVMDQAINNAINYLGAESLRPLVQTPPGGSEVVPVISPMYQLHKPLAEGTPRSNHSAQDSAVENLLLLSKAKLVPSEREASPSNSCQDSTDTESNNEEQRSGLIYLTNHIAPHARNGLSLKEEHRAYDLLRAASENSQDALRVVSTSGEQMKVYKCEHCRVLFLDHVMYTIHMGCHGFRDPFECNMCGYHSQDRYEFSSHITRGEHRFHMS
T6 sequence (Q96SW2 whole entry): as the sequence (Q96SW2 whole entry) above
T6 sequence (Q16531 whole entry partner): as the sequence (Q16531 whole entry partner) above
T7 sequence (P48729 whole entry): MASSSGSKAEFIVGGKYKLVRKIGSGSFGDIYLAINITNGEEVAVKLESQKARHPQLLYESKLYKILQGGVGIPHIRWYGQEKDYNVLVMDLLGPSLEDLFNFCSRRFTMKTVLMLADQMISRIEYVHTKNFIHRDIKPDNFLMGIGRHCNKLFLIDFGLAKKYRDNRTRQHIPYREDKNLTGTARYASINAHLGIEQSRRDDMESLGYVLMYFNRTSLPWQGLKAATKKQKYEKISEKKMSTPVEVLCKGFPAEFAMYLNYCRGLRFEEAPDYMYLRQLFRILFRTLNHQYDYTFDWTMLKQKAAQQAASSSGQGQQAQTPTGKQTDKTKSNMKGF
T7 sequence (Q96SW2 whole entry): as the sequence (Q96SW2 whole entry) above
T7 sequence (Q16531 whole entry partner): as the sequence (Q16531 whole entry partner) above
T3 sequence (Q9UKT9 whole entry): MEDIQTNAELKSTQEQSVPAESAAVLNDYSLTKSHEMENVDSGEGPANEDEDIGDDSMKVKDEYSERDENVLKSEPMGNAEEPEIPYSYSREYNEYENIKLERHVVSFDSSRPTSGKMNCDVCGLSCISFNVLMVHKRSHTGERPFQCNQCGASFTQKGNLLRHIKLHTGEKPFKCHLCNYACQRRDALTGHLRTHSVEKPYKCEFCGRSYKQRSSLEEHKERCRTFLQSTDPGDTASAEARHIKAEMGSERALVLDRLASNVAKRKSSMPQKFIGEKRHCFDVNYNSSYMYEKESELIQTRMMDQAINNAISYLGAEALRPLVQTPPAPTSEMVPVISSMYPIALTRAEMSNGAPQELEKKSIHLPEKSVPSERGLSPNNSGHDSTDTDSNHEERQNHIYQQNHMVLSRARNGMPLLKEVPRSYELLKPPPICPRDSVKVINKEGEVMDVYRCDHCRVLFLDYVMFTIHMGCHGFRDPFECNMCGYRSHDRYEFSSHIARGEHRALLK
T3 sequence (Q96SW2 whole entry): as the sequence (Q96SW2 whole entry) above
T3 sequence (Q16531 whole entry partner): as the sequence (Q16531 whole entry partner) above

SMILES	IKZF2 substrate protein remaining % (IKZF2)	GSPT1 substrate protein remaining % (GSPT1)	IC50 (Jurkat) [nM]	IC50 (NCI-H1975) [nM]	IKZF3 substrate protein remaining % (IKZF3)	Weel substrate protein remaining % (WEE1)	IC50 [1] [nM]	IKZF 1 substrate protein remaining % (IKZF1)	CK1a substrate protein remaining % (CK1α)	IC50 [2] [nM]	IC50 (CAL-62) [nM]	IC50 (MM.1R) [nM]	IC50 [3] [nM]
O=C1CCC(N2Cc3cc(CN4CCC(c5cccc(Cl)c5Cl)CC4)ccc3C2=O)C(=O)N1 (stereo not drawn) [GT-04551, 3-(5-((4-(2,3-dichlorophenyl)piperidin-1-yl)methyl)-1-oxoisoindolin-2-yl)piperidine-2,6-dione]	A (0% ≤ substrate protein remaining % ≤ 80%)	A (0% ≤ substrate protein remaining % ≤ 80%)	< 1	5 to 10	A (0% ≤ substrate protein remaining % ≤ 80%)	A (0% ≤ substrate protein remaining % ≤ 80%)	500 to 1000	A (0% ≤ substrate protein remaining % ≤ 80%)	A (0% ≤ substrate protein remaining % ≤ 80%)	10 to 50	1 to 5	1 to 5	1 to 5
O=C1CCC(N2Cc3cc(CN4CC=C(c5ccnc(Cl)c5Cl)CC4)ccc3C2=O)C(=O)N1 (stereo not drawn) [GT-04559, 3-(5-((2',3'-dichloro-3,6-dihydro-[4,4'-bipyridin]-1(2H)-yl)methyl)-1-oxoisoindolin-2-yl)piperidine-2,6-dione]	A (0% ≤ substrate protein remaining % ≤ 80%)	A (0% ≤ substrate protein remaining % ≤ 80%)	1 to 5	10 to 50	A (0% ≤ substrate protein remaining % ≤ 80%)	A (0% ≤ substrate protein remaining % ≤ 80%)	< 500	A (0% ≤ substrate protein remaining % ≤ 80%)	A (0% ≤ substrate protein remaining % ≤ 80%)	10 to 50	1 to 5	1 to 5	1 to 5
O=C1CCC(N2Cc3cc(CN4CCN(c5cccc(Cl)c5Cl)CC4)c(F)cc3C2=O)C(=O)N1 (stereo not drawn) [GT-04527, 3-(5-((4-(2,3-dichlorophenyl)piperazin-1-yl)methyl)-6-fluoro-1-oxoisoindolin-2-yl)piperidine-2,6-dione]	A (0% ≤ substrate protein remaining % ≤ 80%)	A (0% ≤ substrate protein remaining % ≤ 80%)	500 to 1000	10 to 50	A (0% ≤ substrate protein remaining % ≤ 80%)	A (0% ≤ substrate protein remaining % ≤ 80%)	–	B (80%< substrate protein remaining %≤ 100%)	A (0% ≤ substrate protein remaining % ≤ 80%)	10 to 50	1 to 5	5 to 10	1 to 5
O=C1CCC(N2Cc3cc(CN4CC=C(c5cccc(F)c5Cl)CC4)ccc3C2=O)C(=O)N1 (stereo not drawn) [GT-04554, 3-(5-((4-(2-chloro-3-fluorophenyl)-3,6-dihydropyridin-1(2H)-yl)methyl)-1-oxoisoindolin-2-yl)piperidine-2,6-dione]	A (0% ≤ substrate protein remaining % ≤ 80%)	A (0% ≤ substrate protein remaining % ≤ 80%)	< 1	1 to 5	A (0% ≤ substrate protein remaining % ≤ 80%)	A (0% ≤ substrate protein remaining % ≤ 80%)	500 to 1000	A (0% ≤ substrate protein remaining % ≤ 80%)	A (0% ≤ substrate protein remaining % ≤ 80%)	1 to 5	< 1	< 1	< 1
Cc1ccc(N2CCN(Cc3ccc4c(c3)CN(C3CCC(=O)NC3=O)C4=O)CC2)s1 (stereo not drawn) [GT-04546, 3-(5-((4-(5-methylthiophen-2-yl)piperazin-1-yl)methyl)-1-oxoisoindolin-2-yl)piperidine-2,6-dione]	A (0% ≤ substrate protein remaining % ≤ 80%)	A (0% ≤ substrate protein remaining % ≤ 80%)	50 to 100	–	A (0% ≤ substrate protein remaining % ≤ 80%)	A (0% ≤ substrate protein remaining % ≤ 80%)	500 to 1000	A (0% ≤ substrate protein remaining % ≤ 80%)	A (0% ≤ substrate protein remaining % ≤ 80%)	–	10 to 50	100 to 500	100 to 500
Cc1cc(N2CCN(Cc3ccc4c(c3)CN(C3CCC(=O)NC3=O)C4=O)CC2)cs1 (stereo not drawn) [GT-04549, 3-(5-((4-(5-methylthiophen-3-yl)piperazin-1-yl)methyl)-1-oxoisoindolin-2-yl)piperidine-2,6-dione]	A (0% ≤ substrate protein remaining % ≤ 80%)	A (0% ≤ substrate protein remaining % ≤ 80%)	5 to 10	100 to 500	A (0% ≤ substrate protein remaining % ≤ 80%)	A (0% ≤ substrate protein remaining % ≤ 80%)	500 to 1000	A (0% ≤ substrate protein remaining % ≤ 80%)	A (0% ≤ substrate protein remaining % ≤ 80%)	100 to 500	10 to 50	100 to 500	5 to 10
O=C1CCC(N2Cc3cc(CN4CCN(c5ccc(F)c(F)c5)CC4)ccc3C2=O)C(=O)N1 (stereo not drawn) [GT-04529, 3-(5-((4-(3,4-difluorophenyl)piperazin-1-yl)methyl)-1-oxoisoindolin-2-yl)piperidine-2,6-dione]	A (0% ≤ substrate protein remaining % ≤ 80%)	A (0% ≤ substrate protein remaining % ≤ 80%)	10 to 50	–	A (0% ≤ substrate protein remaining % ≤ 80%)	A (0% ≤ substrate protein remaining % ≤ 80%)	1500 to 1900	A (0% ≤ substrate protein remaining % ≤ 80%)	A (0% ≤ substrate protein remaining % ≤ 80%)	–	100 to 500	50 to 100	10 to 50
O=C1CCC(N2Cc3cc(CN4CCN(c5cc(F)ccc5F)CC4)ccc3C2=O)C(=O)N1 (stereo not drawn) [GT-04539, 3-(5-((4-(2,5-difluorophenyl)piperazin-1-yl)methyl)-1-oxoisoindolin-2-yl)piperidine-2,6-dione]	A (0% ≤ substrate protein remaining % ≤ 80%)	A (0% ≤ substrate protein remaining % ≤ 80%)	10 to 50	–	A (0% ≤ substrate protein remaining % ≤ 80%)	A (0% ≤ substrate protein remaining % ≤ 80%)	500 to 1000	A (0% ≤ substrate protein remaining % ≤ 80%)	A (0% ≤ substrate protein remaining % ≤ 80%)	–	50 to 100	10 to 50	10 to 50
O=C1CCC(N2Cc3cc(CN4CCC(c5ccnc(Cl)c5Cl)CC4)ccc3C2=O)C(=O)N1 (stereo not drawn) [GT-04560, 3-(5-((4-(2,3-dichloropyridin-4-yl)piperidin-1-yl)methyl)-1-oxoisoindolin-2-yl)piperidine-2,6-dione]	A (0% ≤ substrate protein remaining % ≤ 80%)	A (0% ≤ substrate protein remaining % ≤ 80%)	10 to 50	–	A (0% ≤ substrate protein remaining % ≤ 80%)	A (0% ≤ substrate protein remaining % ≤ 80%)	500 to 1000	A (0% ≤ substrate protein remaining % ≤ 80%)	A (0% ≤ substrate protein remaining % ≤ 80%)	–	10 to 50	10 to 50	10 to 50
